Source: publication PMC10504751, “Chalcone/1,3,4-Oxadiazole/Benzimidazole hybrids as novel anti-proliferative agents inducing apoptosis and inhibiting EGFR & BRAFV^600E” (BMC Chemistry, 2023)

Columns and labels:
Assay in all cases: NCI one-dose SRB anti-proliferative screen
Assay type in all cases: cell-based
[1] = system: ACHN; conditions: Homo sapiens; ACHN (Renal Cancer), NCI one dose 10 µM; read-out: Cell growth inhibition %
Outline: (§1)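 Activity reflects a single-point exposure at 10 µM, with cell mass determined by a sulforhodamine B dye assay.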

[2] = system: PC-3; conditions: Homo sapiens; PC-3 (Prostate Cancer), NCI one dose 10 µM; read-out: Cell growth inhibition %
Outline: as §1

[3] = system: SN12C; conditions: Homo sapiens, SN 12C (Renal Cancer), NCI one dose 10 µM, read-out: Cell growth inhibition %
Outline: as §1

[4] = system: TK-10; conditions: Homo sapiens; TK-10 (Renal Cancer), NCI one dose 10 µM; read-out: Cell growth inhibition %
Outline: as §1

[5] = system: 786-0; conditions: Homo sapiens; 786-0 (Renal Cancer), NCI one dose 10 µM; read-out: Cell growth inhibition %
Outline: as §1

[6] = system: MDA-MB-435; conditions: Homo sapiens; MDA-MB-435 (Melanoma), NCI one dose 10 µM; read-out: Cell growth inhibition %
Outline: as §1

[7] = system: SK-MEL-2; conditions: Homo sapiens; SK-MEL-2 (Melanoma), NCI one dose 10 µM; read-out: Cell growth inhibition %
Outline: as §1

[8] = system: UACC-62; conditions: Homo sapiens; UACC-62 (Melanoma), NCI one dose 10 µM; read-out: Cell growth inhibition %
Outline: as §1

[9] = system: A498; conditions: Homo sapiens; A498 (Renal Cancer), NCI one dose 10 µM; read-out: Cell growth inhibition %
Outline: as §1

[10] = system: BT-549; conditions: Homo sapiens; BT-549 (Breast Cancer), NCI one dose 10 µM; read-out: Cell growth inhibition %
Outline: as §1

[11] = system: OVCAR-8; conditions: Homo sapiens; OVCAR-8 (Ovarian Cancer), NCI one dose 10 µM; read-out: Cell growth inhibition %
Outline: as §1

[12] = system: SF-539; conditions: Homo sapiens; SF-539 (CNS Cancer), NCI one dose 10 µM; read-out: Cell growth inhibition %
Outline: as §1

[13] = system: UO-31; conditions: Homo sapiens; UO-31 (Renal Cancer), NCI one dose 10 µM; read-out: Cell growth inhibition %
Outline: as §1

[14] = system: SR; conditions: Homo sapiens; SR (Leukemia), NCI one dose 10 µM; read-out: Cell growth inhibition %
Outline: as §1

[15] = system: OVCAR-3; conditions: Homo sapiens; OVCAR-3 (Ovarian Cancer), NCI one dose 10 µM; read-out: Cell growth inhibition %
Outline: as §1

[16] = system: HCT-15; conditions: Homo sapiens; HCT-15 (Colon Cancer), NCI one dose 10 µM; read-out: Cell growth inhibition %
Outline: as §1

[17] = system: SK-MEL-28; conditions: Homo sapiens; SK-MEL-28 (Melanoma), NCI one dose 10 µM; read-out: Cell growth inhibition %
Outline: as §1

[18] = system: OVCAR-5; conditions: Homo sapiens; OVCAR-5 (Ovarian Cancer), NCI one dose 10 µM; read-out: Cell growth inhibition %
Outline: as §1

[19] = system: HL-60(TB); conditions: Homo sapiens; HL-60(TB) (Leukemia), NCI one dose 10 µM; read-out: Cell growth inhibition %
Outline: as §1

[20] = system: OVCAR-4; conditions: Homo sapiens; OVCAR-4 (Ovarian Cancer), NCI one dose 10 µM; read-out: Cell growth inhibition %
Outline: as §1

[21] = system: LOX IMVI; conditions: Homo sapiens, LOX IMIV (Melanoma), NCI one dose 10 µM, read-out: Cell growth inhibition %
Outline: as §1

[22] = system: NCI/ADR-RES; conditions: Homo sapiens; NCI/ADR-RES (Ovarian Cancer), NCI one dose 10 µM; read-out: Cell growth inhibition %
Outline: as §1

[23] = system: A549/ATCC; conditions: Homo sapiens; A549/ATCC (Non-Small Cell Lung Cancer), NCI one dose 10 µM; read-out: Cell growth inhibition %
Outline: as §1

[24] = system: U251; conditions: Homo sapiens, U-251; U251 (CNS Cancer), NCI one dose 10 µM; read-out: Cell growth inhibition %
Outline: as §1

[25] = system: NCI-H322M; conditions: Homo sapiens; NCI-H322M (Non-Small Cell Lung Cancer), NCI one dose 10 µM; read-out: Cell growth inhibition %
Outline: as §1

[26] = system: MDA-MB-231/ATCC; conditions: Homo sapiens; MDA-MB-231/ATCC (Breast Cancer), NCI one dose 10 µM; read-out: Cell growth inhibition %
Outline: as §1

[27] = system: MALME-3M; conditions: Homo sapiens; MALME-3M (Melanoma), NCI one dose 10 µM; read-out: Cell growth inhibition %
Outline: as §1

[28] = system: NCI-H23; conditions: Homo sapiens; NCI-H23 (Non-Small Cell Lung Cancer), NCI one dose 10 µM; read-out: Cell growth inhibition %
Outline: as §1

[29] = system: M14; conditions: Homo sapiens; M14 (Melanoma), NCI one dose 10 µM; read-out: Cell growth inhibition %
Outline: as §1

[30] = system: NCI-H522; conditions: Homo sapiens; NCI-H522 (Non-Small Cell Lung Cancer), NCI one dose 10 µM; read-out: Cell growth inhibition %
Outline: as §1

[31] = system: NCI-H226; conditions: Homo sapiens; NCI-H226 (Non-Small Cell Lung Cancer), NCI one dose 10 µM; read-out: Cell growth inhibition %
Outline: as §1

Structure (SMILES) | inhibition at 10 µM [1] | inhibition at 10 µM [2] | inhibition at 10 µM [3] | inhibition at 10 µM [4] | inhibition at 10 µM [5] | inhibition at 10 µM [6] | inhibition at 10 µM [7] | inhibition at 10 µM [8] | inhibition at 10 µM [9] | inhibition at 10 µM [10] | inhibition at 10 µM [11] | inhibition at 10 µM [12] | inhibition at 10 µM [13] | inhibition at 10 µM [14] | inhibition at 10 µM [15] | inhibition at 10 µM [16] | inhibition at 10 µM [17] | inhibition at 10 µM [18] | inhibition at 10 µM [19] | inhibition at 10 µM [20] | also measured
COc1cc(-c2nc3cc(-c4nnc(SCC(=O)Nc5ccc(C(=O)/C=C/c6ccccc6)cc5)o4)ccc3[nH]2)cc(OC)c1OC [Compound 7u, 2-{5-[2-(3,4,5-Trimethoxyphenyl)-1 H-benzo[d]imidazol-5-yl]-1,3,4-oxadiazol-2-ylthio}-N-{4-[(E)-3-phenylacryloyl]phenyl}acetamide] | 1.08% | 9.18% | 13.2% | 0% | 0% | 6.83% | 0% | 8.01% | 0% | 28.9% | 10.6% | 13.3% | 21% | 40.3% | 0% | 12.3% | 0% | 0% | 5.25% | 0% | inhibition at 10 µM [21]: 22%; inhibition at 10 µM [22]: 0%; inhibition at 10 µM [23]: 0.78%; inhibition at 10 µM [24]: 9.89%; inhibition at 10 µM [25]: 0%; inhibition at 10 µM [26]: 4.05%; inhibition at 10 µM [27]: 2.82%; inhibition at 10 µM [28]: 3.04%; inhibition at 10 µM [29]: 0%; inhibition at 10 µM [30]: 3.99%; inhibition at 10 µM [31]: 10.4%
COc1ccc(-c2nc3cc(-c4nnc(SCC(=O)Nc5ccc(C(=O)/C=C/c6ccccc6)cc5)o4)ccc3[nH]2)cc1OC [Compound 7p, 2-{5-[2-(3,4-Dimethoxyphenyl)-1 H-benzo[d]imidazol-5-yl]-1,3,4-oxadiazol-2-ylthio}-N-{4-[(E)-3-phenylacryloyl]phenyl}acetamide] | 3.66% | 0% | 5.25% | 0% | 0.75% | 0% | 0% | 4.99% | 0% | 5.86% | 0% | 16.4% | 11.5% | 16.4% | 0% | 8.17% | 0% | 0.55% | 0% | 0% | inhibition at 10 µM [21]: 112%; inhibition at 10 µM [22]: 0%; inhibition at 10 µM [23]: 0%; inhibition at 10 µM [24]: 6.84%; inhibition at 10 µM [25]: 0%; inhibition at 10 µM [26]: 8.78%; inhibition at 10 µM [27]: 2.95%; inhibition at 10 µM [28]: 0.22%; inhibition at 10 µM [29]: 0%; inhibition at 10 µM [30]: 1.56%; inhibition at 10 µM [31]: 1.84%
COc1ccc(-c2nc3cc(-c4nnc(SCC(=O)Nc5ccc(C(=O)/C=C/c6ccc(Cl)cc6)cc5)o4)ccc3[nH]2)cc1OC [Compound 7q, 2-{5-[2-(3,4-Dimethoxyphenyl)-1 H-benzo[d]imidazol-5-yl]-1,3,4-oxadiazol-2-ylthio}-N-{4-[(E)-3-(4-chlorophenyl)acryloyl]phenyl}acetamide] | 5.74% | 2.29% | 5.1% | 0% | 0% | 0% | 0% | 1.95% | 0% | 0% | 0% | 16.2% | 13% | 27% | 0% | 2.92% | 0% | 4.8% | 11.3% | 0% | inhibition at 10 µM [21]: 96.8%; inhibition at 10 µM [22]: 0%; inhibition at 10 µM [23]: 0%; inhibition at 10 µM [24]: 0%; inhibition at 10 µM [25]: 4.21%; inhibition at 10 µM [26]: 4.84%; inhibition at 10 µM [27]: 4.86%; inhibition at 10 µM [28]: 0%; inhibition at 10 µM [29]: 0%; inhibition at 10 µM [30]: 1.57%; inhibition at 10 µM [31]: 1.46%
